According to patent publication EP1222265B1, “NOVEL NICOTINIC ACETYLCHOLINE RECEPTOR SUBUNIT, ITS ISOLATION AND USE” (Sanofi-Aventis, priority 1999, dated 2001):
Read-outs that look alike come from different tables or passages of the source. Blank lines part the entries; values can stand above or below the molecule they belong to.

How the values were obtained:
[1] = molecular target: T1, Heteromeric α9-HNARA10 receptors (Homo sapiens, UniProt Q9GZZ6+Q9UGM1); experiment: ACh-evoked currents in Xenopus laevis oocytes injected with human α9 and HNARA10 cDNAs; format: cell-based; details: for antagonism of ACh responses: α9+HNARA10 receptors
T1 construct: expressed in transfected cells; host or cells: Xenopus laevis oocytes (nuclear injection of cDNA)

homomeric α9 receptors = molecular target: T2, homomeric α9 receptors (Homo sapiens, UniProt Q9UGM1); format: cell-based
T2 construct: expressed in transfected cells; host or cells: Xenopus laevis oocytes (cDNA injection)

[2] = molecular target: human nicotinic acetylcholine receptor α9 subunit (homomeric α9 receptors) (human) (UniProt Q9UGM1); experiment: cell-based or functional assay
human nicotinic acetylcholine receptor α9 subunit (homomeric α9 receptors) (human), sequence (Q9UGM1 23-479): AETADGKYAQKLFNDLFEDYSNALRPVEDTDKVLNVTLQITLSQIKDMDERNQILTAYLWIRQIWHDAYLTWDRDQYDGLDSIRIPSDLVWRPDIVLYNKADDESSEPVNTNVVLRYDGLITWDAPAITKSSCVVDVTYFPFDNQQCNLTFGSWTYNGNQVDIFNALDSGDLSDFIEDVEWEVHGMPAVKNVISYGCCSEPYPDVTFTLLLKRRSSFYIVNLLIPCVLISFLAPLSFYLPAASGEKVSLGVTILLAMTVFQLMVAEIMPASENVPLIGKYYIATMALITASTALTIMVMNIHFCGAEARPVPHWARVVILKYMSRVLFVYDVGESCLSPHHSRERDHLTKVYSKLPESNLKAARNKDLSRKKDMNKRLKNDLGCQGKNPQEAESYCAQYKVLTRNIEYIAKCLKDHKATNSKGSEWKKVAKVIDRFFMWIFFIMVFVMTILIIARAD

T1 sequence (Q9UGM1 23-479): as above
T1 sequence (Q9GZZ6 25-450): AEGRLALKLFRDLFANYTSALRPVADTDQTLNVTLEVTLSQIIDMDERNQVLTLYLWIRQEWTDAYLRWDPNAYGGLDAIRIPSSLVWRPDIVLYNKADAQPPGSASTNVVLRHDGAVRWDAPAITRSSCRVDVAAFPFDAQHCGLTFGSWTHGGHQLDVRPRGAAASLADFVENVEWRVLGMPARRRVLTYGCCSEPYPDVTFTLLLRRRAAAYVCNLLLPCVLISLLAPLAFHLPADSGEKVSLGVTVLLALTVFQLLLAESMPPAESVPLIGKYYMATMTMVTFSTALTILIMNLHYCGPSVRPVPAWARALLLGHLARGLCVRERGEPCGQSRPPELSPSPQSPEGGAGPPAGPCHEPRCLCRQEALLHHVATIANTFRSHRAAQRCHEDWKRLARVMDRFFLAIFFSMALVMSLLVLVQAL
T2 sequence (Q9UGM1 23-479): as the sequence (Q9UGM1 23-479) above

Molecule: C[N+]1(C)CCN(c2ccccc2)CC1 [DMPP]
- agonist response [1]: did not elicit any response
- agonist response (homomeric α9 receptors): did not elicit any response

- evoked current (partial agonist) ([1]; oocytes expressing the mixture α9-HNARA10, from dose-response curves): about 72%
Molecule: C[N+](C)(C)CCOC(N)=O [carbachol]

Molecule: COc1cc2c3cc1Oc1cc(ccc1O)C[C@@H]1c4c(cc(OC)c(O)c4Oc4ccc(cc4)C[C@@H]3N(C)CC2)CC[N+]1(C)C [d-tubocurarine]
- antagonism of ACh responses [1]: fully antagonized
- antagonism of ACh responses (homomeric α9 receptors; α9 receptors): fully antagonized

Molecule: CO[C@H]1CC=C2CCN3CCC4=C(CC(=O)OC4)[C@]23C1 [dihydro-β-erythroidine]
- antagonism of ACh responses [1]: did not have any effect

Molecule: Clc1ccc(C2CC3CCC2N3)cn1 (centres unmarked) [epibatidine]
- agonist response ([1]; α9+HNARA10 expressing oocytes): did not elicit any response
- agonist response (homomeric α9 receptors; α9 expressing oocytes): did not elicit any response

Molecule: CN1CCCC1c1cccnc1 (centres unmarked) [nicotine]
- agonist response [1]: did not elicit any response
- agonist response (homomeric α9 receptors): did not elicit any response

Molecule: HNARA10 polypeptide (human nicotinic acetylcholine receptor alpha 10 subunit)
- amplitude of acetylcholine-evoked currents in Xenopus oocytes, α9-HNARA10 mixture against α9 alone [2]: 100 fold
